The values that follow come from PMC10250385, “Pregnane X receptor agonist nomilin extends lifespan and healthspan in preclinical models through detoxification functions” (Nature Communications, 2023).

In data set [1] the target is T1, human pregnane X receptor (hPXR) (Homo sapiens, UniProt O75469).
T1 sequence (O75469 130-434 limits assumed): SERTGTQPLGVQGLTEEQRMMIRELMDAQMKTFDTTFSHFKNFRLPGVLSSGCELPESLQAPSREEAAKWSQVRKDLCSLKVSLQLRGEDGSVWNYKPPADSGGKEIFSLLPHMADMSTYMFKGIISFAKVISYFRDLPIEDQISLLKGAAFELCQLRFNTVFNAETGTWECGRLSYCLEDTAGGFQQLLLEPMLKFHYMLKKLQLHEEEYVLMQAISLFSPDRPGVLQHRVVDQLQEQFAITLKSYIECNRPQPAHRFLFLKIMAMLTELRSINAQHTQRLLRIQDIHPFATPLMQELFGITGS
The data set can be described thus: TR-FRET competitive binding assay (LanthaScreen PXR); also activates hPXR in reporter assay. Further details: gene NR1I2; hPXR-LBD-GST. For orientation: Time-resolved FRET reads energy transfer from a long-lived donor to a nearby acceptor.

Data set [2] deals with T1, human pregnane X receptor (hPXR). The data set can be described thus: biochemical. Further details: gene NR1I2.
Data set [3] addresses T2, ligand-binding domain (LBD) of human pregnane X receptor (hPXR), residues 130–432 (human, UniProt O75469-1 130-432).
T2 construct: In the crystal it stood on one chain with the NCOA1 peptide, joined by the spacer SSSGGT: see m1; also called hPXR LBD; hPXR^LBD; source: Sf9 (recombinant baculovirus), purified, as part of the fusion protein m1
T2 sequence (looked up): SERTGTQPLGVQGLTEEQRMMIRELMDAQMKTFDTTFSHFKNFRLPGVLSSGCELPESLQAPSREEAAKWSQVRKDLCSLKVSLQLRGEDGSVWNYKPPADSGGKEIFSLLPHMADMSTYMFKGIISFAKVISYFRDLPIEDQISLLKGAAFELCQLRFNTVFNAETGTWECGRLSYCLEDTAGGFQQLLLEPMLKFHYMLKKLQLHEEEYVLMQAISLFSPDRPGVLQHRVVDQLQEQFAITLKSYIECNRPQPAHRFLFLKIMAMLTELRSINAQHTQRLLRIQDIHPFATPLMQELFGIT
The data set can be described thus: crystal structure; hPXR^LBD-NCOA1^676–700 co-crystallised with nomilin (1 mM), sitting drop vapour diffusion at 4 °C, 10% (v/v) 2-propanol, 100 mM imidazole/HCl pH 8.0; 2.1 Å; the homodimer is also said to form in the purification (SEC in 150 mM NaCl, 20 mM HEPES, 1 mM TCEP). As to conditions: both partners purified.

Data set [4] concerns the molecule itself. The data set is described as above.

As to `CC1(C)OC(=O)C[C@H](O)[C@]2(C)[C@H]3CC[C@@]4(C)[C@H](c5ccoc5)OC(=O)[C@H]5O[C@]54[C@]3(C)C(=O)C[C@@H]12` [deacetylnomilin], the IC50 (usually the concentration needed to halve the response being measured) in data set [1] was 22.7 µM.

In data set [2], `CC(=O)O[C@H]1CC(=O)OC(C)(C)[C@@H]2CC(=O)[C@]3(C)[C@H](CC[C@@]4(C)[C@H](c5ccoc5)OC(=O)[C@H]5O[C@]543)[C@@]12C` [nomilin] gave an IC50 of 5.8 µM.

B1: nuclear receptor coactivator 1 residues 676–700 (NCOA1^676–700) (peptide, UniProt Q15788-1 676-700, looked up)
peptide: CPSSHSSLTERHKILHRLLQEGSPS
notes: In the crystal it stood on one chain with the hPXR LBD, joined to its C-terminus by the spacer SSSGGT: see m1; source: Sf9 (recombinant baculovirus), purified, as part of the fusion protein m1; not shown: His6, C-terminal, cleaved
B1: in data set [3], the binding result was “binds”.

B2: hPXR^LBD-NCOA1^676–700 fusion protein (other)
chain: SERTGTQPLGVQGLTEEQRMMIRELMDAQMKTFDTTFSHFKNFRLPGVLSSGCELPESLQAPSREEAAKWSQVRKDLCSLKVSLQLRGEDGSVWNYKPPADSGGKEIFSLLPHMADMSTYMFKGIISFAKVISYFRDLPIEDQISLLKGAAFELCQLRFNTVFNAETGTWECGRLSYCLEDTAGGFQQLLLEPMLKFHYMLKKLQLHEEEYVLMQAISLFSPDRPGVLQHRVVDQLQEQFAITLKSYIECNRPQPAHRFLFLKIMAMLTELRSINAQHTQRLLRIQDIHPFATPLMQELFGITSSSGGTCPSSHSSLTERHKILHRLLQEGSPS
notes: spacer -Ser-Ser-Ser-Gly-Gly-Thr- between the hPXR LBD and the NCOA1 peptide; A TEV protease recognition site stood between the NCOA1 peptide and the His6 tag; Crystallised with nomilin in the ligand pocket; also called hPXR chimera; source: Sf9 (recombinant baculovirus), purified (Talon IMAC, TEV cleavage, second IMAC, SEC on Superdex 200 Increase); not shown: His6, C-terminal, cleaved
With B2, the stoichiometry N (in general, the number of molecules, sites or subunits per partner or assembly) in data set [4] came to 2.
